{
  "source": "patent US20190290656A1",
  "about": "“PT(IV) PRODRUGS” (YISSUM RESEARCH DEVELOPMENT COMPANY OF THE HEBREW …, priority 2015, published 2019)",
  "key": {"[1]": {"system": "six human cancer cell lines", "assay": "MTT cytotoxicity, over six human cancer cell lines", "assay_type": "cell-based", "conditions": "on average over tested cell lines", "experimental": "MTT assay. […] Triplicate cultures were established for each treatment.\nThe two dimers, 3a and 3b, as well as compounds 1a and 2a were screened against six human cancer cell lines representative of lung (H157), colon (HCT-15), cervical (A431), ovarian (2008) and pancreatic (PSN1) cancers, along with melanoma (A375). Cytotoxicity was evaluated by means of the MTT test after 72 h of treatment and the in vitro antitumor potential of newly synthesized derivatives was compared to that of the reference metallo-drugs CDDP and OXP."}, "[2]": {"assay": "Stability in phosphate buffer (NMR)", "assay_type": "physicochemical", "conditions": "phosphate buffer pH 7, 37° C.", "experimental": "A solution 2.0 mM of 3a (Scheme 4) in sodium phosphate buffer (50 mM, pH=7) was kept at 37° C. for 3 days. NMR and HPLC measurements were performed every day.\nA 2.0 mM solution of 3a in phosphate buffer at pH=7 was kept at 37° C. in order to assay its stability by mean of NMR spectroscopy (FIG. 7). […] The signal at 7.40 ppm was assigned to the amidic proton. The signals at 7.18 and 6.48 belong to the aromatic ring of the coordinated phenylbutyrate. The large difference in chemical shifts between the 2 ortho protons of the phenyl ring and the 3 meta and para protons, coupled with the unusually low chemical shifts for the aromatic ortho protons, indicates a strong intramolecular interaction with the phenanthroline. Finally, the peak at 6.37 belongs to the coordinated DCA."}, "[3]": {"assay": "Stability in cell culture medium DMEM (NMR)", "assay_type": "physicochemical", "conditions": "37° C.", "experimental": "A solution 2.0 mM of 3a (Scheme 4) in DMEM was kept at 37° C. for 3 days. NMR measurements were performed every day.\nA phosphate buffer solution is an oversimplified model for medium of biological relevance in order to test the stability of a drug candidate. […] Thus, as following step, we evaluated the stability of 3a in cell culture medium DMEM, where the biomolecules present can affect the overall degradation process. A 2.0 mM solution of 3a in DMEM monitored by ^1H NMR spectroscopy for 3 days at 37° C. (FIG. 8)."}, "[4]": {"assay": "Reduction in buffer in the presence of ascorbic acid", "assay_type": "physicochemical", "conditions": "1 Eq ascorbic acid, phosphate buffer, RT, 2 hours", "experimental": "A solution 2.0 mM of 3a (Scheme 4) in buffer was treated with 1 Eq ascorbic acid. NMR measurements were performed over a 2 hour time frame.\nIn order to assay which of the two Pt metal centers of 3a is more prone to be reduced, we added 1 Eq of ascorbic acid to a solution of 3a in phosphate buffer. […] Finally, we carried out the reaction at RT and not at 37° C. to avoid a fast reduction process that would have made more complicated its study.\nThe reaction was monitored by ^1H NMR spectroscopy (FIG. 9). Already after 2 min, time needed to prepare the sample and start the NMR experiment, besides the signals belonging to 3a, previously discussed, it was possible to note the signal belonging to [Pt(DACH)(56Phen)]^2+, free phenyl butyric acid and a signal at 6.34 ppm, consistent with a DCA moiety coordinated to a Pt(IV) metal center. These signals indicated the reduction of the phenanthroline-bonded Pt unit of 3a to [Pt(DACH)(56Phen)]^2+, and the release of the axial ligands, […] and c,c,t-[Pt(NH3)2(DCA)(OOCCH2CH2CH2NHCOCH2CH2COOH)] (5). We were not able to isolate the latter species. […] The reaction was monitored for about 2 hours. In FIG. 9 are reported the spectra recorded after 9, 21 and 59 min. In the second hour, no changes were detected."}, "PSN-1 cells": {"system": "PSN-1 cells", "assay": "Nuclear DNA fragmentation ELISA, PSN-1", "assay_type": "cell-based, human", "conditions": "48 h, IC50", "experimental": "FIGS. 13A-13B provide: FIG. 13A) Cytochrome c release. […] FIG. 13B) Nuclear DNA fragmentation. […] Quantitative estimation of DNA fragmentation was obtained with an ELISA test. Data are the means of five independent experiments. Error bars indicate SD.\nAfter 48 h of treatment a roughly 20-fold increase in histone-DNA formation was detected with 3a with respect to controls."}, "MCF-7 cells": {"system": "MCF-7 cells", "assay": "MTT cytotoxicity assay, MCF-7", "assay_type": "cell-based, human", "conditions": "MCF-7, 72 h exposure, MTT; read-out: IC50 (median growth inhibitory concentration)", "experimental": "(§1) Cisplatin (CDDP) and oxaliplatin (OXP) were dissolved just before the experiment in a 0.9% NaCl solution.\n(§2) Human prostate adenocarcinoma (PC3) cells were obtained from European Collection of Cell Cultures (ECACC, Salisbury, UK). Human ovarian cancer cell lines A2780 and its cisplatin resistant variant, A2780cisR, were kindly provided by Prof.\n(§3) Triplicate cultures were established for each treatment."}, "A549 cells": {"system": "A549 cells", "assay": "MTT cytotoxicity assay, A549", "assay_type": "cell-based, human", "conditions": "A549, 72 h exposure, MTT; read-out: IC50 (median growth inhibitory concentration)", "experimental": "as §1, §2, §3"}},
  "data": [
    {"compound": "c,c,t,t,c,c-[(DACH)(56Phen)(PhBu)Pt(μ-OOC—(CH2)2—CONH(CH2)3COO)—Pt(DCA)(NH3)2 (Cl2)](TFA)2 [Compound 3a]", "values": [
      {"measurement": "times more potent than compound 3b", "setting": "[1]", "value": "about 12 fold"},
      {"measurement": "Pt(IV)-phen reduced", "setting": "[2]; after 2 days", "value": "about 9%"},
      {"measurement": "Pt(IV)-phen reduced", "setting": "[2]; after 3 days", "value": 10, "unit": "%"},
      {"measurement": "Pt(IV)-cisPt NMR signal (1101 ppm) relative to Pt(IV)-phen signal (703 ppm)", "setting": "[2]; after a day", "value": 15, "unit": "%"},
      {"measurement": "Pt(IV)-phen reduced", "setting": "[2]; after one day", "value": "approximately 6.5%"},
      {"measurement": "Pt(IV)-phen moiety reduced", "setting": "[3]; after 1 day", "value": "about 22%"},
      {"measurement": "Pt(IV)-phen moiety reduced", "setting": "[3]; after 2 days", "value": 39, "unit": "%"},
      {"measurement": "Pt(IV)-phen moiety reduced", "setting": "[3]; after 3 days", "value": 58, "unit": "%"},
      {"measurement": "reduction by ascorbic acid (in words)", "setting": "[4]", "value": "faster reduction of the phenanthroline-bonded Pt unit"},
      {"measurement": "fold increase in histone-DNA formation with respect to controls", "setting": "PSN-1 cells", "value": "roughly 20 fold"}
    ]},
    {"compound": "[NH2][Pt]([NH2])([Cl])[Cl]", "note": "[CDDP, Cisplatin, reference compound]", "values": [
      {"measurement": "IC50", "setting": "MCF-7 cells", "value": "17.4 ± 0.2", "unit": "µM"},
      {"measurement": "IC50", "setting": "A549 cells", "value": "8.35 ± 0.87", "unit": "µM"}
    ]}
  ]
}
